The values below are quoted from earlier work in US11166974B2, “Ophthalmic solution comprising Diquafosol” (Santen Pharmaceutical Co., Ltd., priority 2012, dated 2021).

The series deals with corneal epithelium disorder of dry eye patients. The following applies: instillation of an ophthalmic solution; NPD 1.

Turning to `O=c1ccn([C@@H]2O[C@H](COP(=O)([O-])OP(=O)([O-])OP(=O)([O-])OP(=O)([O-])OC[C@H]3O[C@@H](n4ccc(=O)[nH]c4=O)[C@H](O)[C@@H]3O)[C@@H](O)[C@H]2O)c(=O)[nH]1.[Na+].[Na+].[Na+].[Na+]` [diquafosol tetrasodium salt], the “corneal epithelium disorder of dry eye patients” value is “improved corneal epithelium disorder”.
